Reference: patent US8343539B2, “Compounds that bind α5β1 integrin and methods of use” (Regents of the University of Minnesota, priority 2006, dated 2013)
Entries after “also recorded” stand apart in the source; their conditions may differ. Primed or numbered codes have the meaning given here. Where no end group is shown, it is not given here. [ ]: non-standard residue; d: D form. (C16)2‑Glu‑C2″ = N-terminal tail: two C16 chains, glutamic acid linker, -(CH2)2- spacer; (C16)2‑Glu‑C2 = lipid tail; Abu = CC[C@H](N)C(=O)O

Tests used:
[1] = test system: HUVECs; assay: Extracellular fibronectin production by HUVECs (Example 1); assay type: cell-based, human; conditions: for Fibronectin production by adhered HUVECs: 12 and 24 hours; for Fibronectin secretion by adhered HUVECs: after 48 hours
Procedure: (§1) Cell spreading and fibronectin production experiments: Surface transferring, cell seeding, and incubation were done in the same manner as in the adhesion experiment, with a cell density of 497 cells/mm^2, and incubation times of 1, 12, 24, 48, and 72 hour. At the end of each incubation, the surfaces were removed, washed with […] of PBS, and fixed in 1 ml of 4% paraformaldehyde (Sigma) in PBS for 15 minutes at 37° C., 5% CO2. After washing with PBS, surfaces were first labeled for secreted fibronectin: surfaces were subjected to a blocking solution (0.1% BSA in PBS) for 30 minutes, incubated for 1 hour with a primary antibody specific for secreted fibronectin (mouse anti-human fibronectin (P1H11) monoclonal antibody (Chemicon Int.) at a 1:500 dilution in blocking solution, and then for 45 minutes with a secondary antibody (IgG fluorescein (FITC) conjugated antibody; Chemicon Int.) at a 1:200 dilution in PBS. As a final step, cell membranes and nuclei were stained using the Image-iT™ LIVE Plasma Membrane and Nuclear Labeling Kit following the manufacturer's protocol for labeling fixed cells (Molecular Probes). After final washing, surfaces were mounted onto glass slides and stored at 4° C. protected from light. An inverted fluorescent microscope (Nikon Eclipse TE200 with Pixcell II LCM) was used for imaging. Fibronectin production was assessed visually, by comparing 10-20 fluorescence images from two samples for each substrate (two independent experiments performed at different days). Cell spreading was quantified from two samples per substrate (two independent experiments performed at different days) by measuring cell area with the NIH imaging software.

[2] = target: T1, integrin αvβ3 (Homo sapiens, UniProt P05106+P06756); assay: Adhesion blocking with anti-integrin αvβ3 antibody (LM609); assay type: cell-based; conditions: anti-αvβ3 antibody 20 μg/ml, 1 hour, HUVECs 249 cells/mm^2
T1 construct: HUVECs were prepared and counted as described in the cell adhesion protocol; endogenous in cells; host or cells: HUVEC (human umbilical vein endothelial cells)
Procedure: Adhesion blocking experiments: Blocking experiments were done using mouse anti-human integrin as (P1D6), β1 (P5D2), α5β1 (JBS5), and αvβ3 (LM609) monoclonal antibodies (Chemicon Int.). All surfaces were transferred to 24- or 12-well plates and pre-incubated in 0.1% BSA media as described above. HUVECs were prepared and counted as described in the cell adhesion protocol. Cells were blocked by mixing the cell suspension with the appropriate antibody in 0.1% BSA media, and incubating for 30 minutes at 37° C., 5% CO2 with constant agitation. Blocked cells were then released onto LB and FN surfaces and allowed to adhere for 1 hour at 37° C., 5% CO2. […] Following incubation, surfaces were washed, and adhered cells were quantified as described in the cell adhesion protocol.

[3] = test system: HUVECs; assay: HUVEC spreading on substrates (cell area); assay type: cell-based, human; conditions: for HUVEC spreading (cell area): 1-24 hours; for HUVEC spreading, rank among surfaces: all times examined, 1-72 hours
Procedure: as §1

[4] = test system: HUVECs; assay: Actin cytoskeleton and focal adhesion staining; assay type: cell-based, human; conditions: for Actin fibers and focal adhesion points: 12 hours
Procedure: Actin cytoskeleton and focal adhesion staining: Surface transferring, cell seeding, incubation, and fixing were done as described above. Staining for the actin cytoskeleton, focal adhesions, and nucleus of attached cells was done using the Actin Cytoskeleton and Focal Adhesion Staining Kit following the manufacturer's protocol (Chemicon Int.) and using 1:350 dilution for anti-vinculin antibody, 1:200 for the secondary antibody, approximately 1:1000 dilution (equivalent to 1 unit/surface) for TRITC-conjugated phalloidin and 1:1000 for DAPI. After washing, surfaces were mounted onto glass slides and stored at 4° C. protected from light. A confocal microscope (BIORAD Multiphoton Confocal 1024) was used for imaging.

[5] = test system: HUVECs; assay: HUVEC adhesion on LB membranes of peptide-amphiphiles (Example 1); assay type: cell-based, human; conditions: 1-72 hours, no serum
Source text: Surface preparation: Peptide-amphiphiles, listed in Table 1, were synthesized as described in the literature (Berndt et al., J. Am. Chem. Soc., 1995; 117:9515-9522). Langmuir-Blodgett (LB) membranes constructed from peptide-amphiphiles were deposited onto 15 mm mica disks as described elsewhere (Kokkoli et al., Langmuir, 2004; 20:2397-2404). Shortly before cell assays, the LB films were transferred into 24-well plates containing 1× phosphate buffered saline (PBS) solution (Mediatech), without exposing surfaces to air, as they rearrange to form multilayers (Hansma et al., Method. Cell Biol., 2002; 69:163-193). After equilibrating for 5-10 minutes, PBS was exchanged with 1 ml of MCDB-131 basal media (Sigma) supplemented with 0.1% bovine serum albumin (BSA) (Sigma) and antibiotics (Sigma) (2.5 μg/ml gentamicin, 2.5 μg/ml amphotericin B, 50 U/ml penicillin, and 50 μg/ml streptomycin), referred to as 0.1% BSA media. Surfaces were equilibrated at 37° C., 5% CO2 for 30-60 minutes before adding the cells. Human fibronectin-coated round coverslips (FN) 22 mm in diameter (BD Biosciences) were put into 12-well plates and 2 ml of 0.1% BSA media was added to each well. Surfaces were equilibrated for 30-60 minutes at 37° C., 5% CO2.
Cell culture: Human umbilical vein endothelial cells, HUVECs, (Cambrex Corporation) were cultured in MCDB-131 containing 20% fetal bovine serum (FBS) (Atlas Biologicals) at 37° C., 5% CO2. Other nutrients and antibiotics supplementing the media were added based on an optimal HUVEC proliferation study (Terramani et al., In Vitro Cell Dev. Biol.—Animal, 2000; 36:125-132). Media was changed in the culture flasks every other day. Cells used for adhesion and imaging studies were in passages 3-4.
Cell adhesion experiments: After cells became 90% confluent they were washed with PBS, trypsinized with 0.25% Trypsin-EDTA (Cambrex Corporation), neutralized with MCDB-131 with 2% FBS, and spun at 1000 rpm for 10 minutes. The supernatant was removed and the cell pellet was resuspended in 0.1% BSA media. Cells were counted with a hemocytometer and seeded onto LB and FN surfaces at a density of 497 cells/mm^2. Surfaces were incubated with cells in 0.1% BSA media at 37° C., 5% CO2, for 1, 4, 12, 24, 48, and 72 hours. Cell adhesion was quantified using the CyQuant Cell Proliferation Assay Kit, with a dye that binds to cellular nucleic acids, following the manufacturer's protocol (Molecular Probes). A calibration standard curve was created for each experiment. The plates were read on a SpectraMAX GeminiXS (Molecular Devices).

[6] = test system: HUVECs; assay: HUVEC adhesion timed experiments on LB membranes (Example 2); assay type: cell-based, human; conditions: for Maintenance / decay of HUVEC adhesion over time: up to 12 hours
Procedure: Surface preparation: Each peptide-amphiphile was used to form homogenous LB membranes as in previous work (Kokkoli Langmuir 2004; 20:2397-2404), except that both the water and 15 mm mica disks used had been autoclaved for sterility. All depositions were done at a surface pressure between 41 and 47 mN/m, well below the collapse pressure and in the liquid-condensed or solid phase. Approximately 90 minutes before cells were seeded on the LB films to begin cell adhesion experiments, mica surfaces were transferred into 1× phosphate buffered saline (PBS), with particular care taken to ensure films were not exposed to air. After 5-10 minutes of equilibration, surfaces were transferred into 24-well plates containing a supplemented MCDB-131 basal media (Sigma), as described in Example 1. Following surface transfer, 24-well plates were moved to a 37° C., 5% CO2 incubator for 45-60 minutes. As a control, 22 mm diameter human fibronectin-coated coverslips (BD Biosciences), referred to as FN, were put into 12-well plates, covered with 2 ml of the supplemented media, and also incubated for 45-60 minutes.
Cell culture: Human umbilical vein endothelial cells, HUVECs (Cambrex Corporation), were cultured as described previously (see Example 1). Only cells from passage 3 were used in all studies.
Cell adhesion experiments: Flasks of HUVECs with at least 90% confluency were washed with 1×PBS, trypsinized with 0.25% Trypsin-EDTA (Fisher Scientific), and neutralized with 2% fetal bovine serum in MCDB-131 basal media. The suspended cells from all flasks were placed in one 50 ml centrifuge tube and centrifuged at 1000 rpm for 5 minutes. The media was removed and the cell pellet was resuspended in the supplemented media described above. A hemocytometer was used to count the cells and then 497 cells/mm^2 were seeded onto both LB and FN surfaces. Surfaces were incubated with cells at 37° C., 5% CO2 for 1, 4, or 12 hours. Cell adhesion following these times was determined using the CyQuant cell proliferation assay kit (Molecular Probes), which measures the fluorescence of a cellular nucleic acid-binding dye using the SpectraMAX GeminiXS plate reader (Molecular Devices). Standard calibration curves were created within each experiment for both 12- and 24-well plates.

[7] = target: α5β1 integrin (Homo sapiens, UniProt P05556+P08648); conditions: inferred from literature on polyglycine linkers (Petrie 2006); cited from earlier work
[8] = test system: HUVECs; assay: Fibronectin production staining (Example 2); assay type: cell-based, human; conditions: 12 hours
Procedure: Fibronectin production staining: Surface preparation, transfer, and cellular work were all done as described in the previous methods. Only surfaces incubated with cells for 12 hours were stained. The staining protocol, involving a primary antibody for secreted fibronectin (Chemicon), a FITC-conjugated secondary antibody (Chemicon), and the Image-iT LIVE plasma membrane and nuclear labeling kit (Molecular Probes), was done as previously described in Example 1. A single photon confocal microscope (Olympus FluoView FV1000) was used for imaging. Two slides per substrate were prepared each during 2 separate experiments and each slide was imaged 2-4 times. The final images chosen were all taken from one experiment for consistency, but were representative of the images obtained from both experiments.

[9] = target: T2, mouse α5β1 integrin on CT26.WT cells (mouse, UniProt P11688 45-1053; P09055 21-798); assay: flow cytometry, PR_b stealth liposomes on CT26.WT cells, 4 °C, 3 hrs
T2 construct: whole, on cells; Endogenous on mouse colon carcinoma cells; also called integrin α5β1 expressing CT26.WT cells
Procedure: Tubes were incubated at 4° C. or 37° C. over a rotary shaker for the specified duration of time. Cells were then pelleted and washed twice in FB. Flow cytometric analysis was carried out immediately. For peptide blocking experiments, the protocol specified above was used except cells were incubated with 200 µg/ml of free peptide-amphiphile in FB for one hour prior to incubating the cells with the liposomes. […] All experiments were repeated twice but results are presented from a single experiment.

[10] = target: T2, mouse α5β1 integrin on CT26.WT cells; assay: flow cytometry, liposomes on CT26.WT cells, 4 °C, 3 hrs

T2 sequence (P11688 45-1053, chain 1 of 2): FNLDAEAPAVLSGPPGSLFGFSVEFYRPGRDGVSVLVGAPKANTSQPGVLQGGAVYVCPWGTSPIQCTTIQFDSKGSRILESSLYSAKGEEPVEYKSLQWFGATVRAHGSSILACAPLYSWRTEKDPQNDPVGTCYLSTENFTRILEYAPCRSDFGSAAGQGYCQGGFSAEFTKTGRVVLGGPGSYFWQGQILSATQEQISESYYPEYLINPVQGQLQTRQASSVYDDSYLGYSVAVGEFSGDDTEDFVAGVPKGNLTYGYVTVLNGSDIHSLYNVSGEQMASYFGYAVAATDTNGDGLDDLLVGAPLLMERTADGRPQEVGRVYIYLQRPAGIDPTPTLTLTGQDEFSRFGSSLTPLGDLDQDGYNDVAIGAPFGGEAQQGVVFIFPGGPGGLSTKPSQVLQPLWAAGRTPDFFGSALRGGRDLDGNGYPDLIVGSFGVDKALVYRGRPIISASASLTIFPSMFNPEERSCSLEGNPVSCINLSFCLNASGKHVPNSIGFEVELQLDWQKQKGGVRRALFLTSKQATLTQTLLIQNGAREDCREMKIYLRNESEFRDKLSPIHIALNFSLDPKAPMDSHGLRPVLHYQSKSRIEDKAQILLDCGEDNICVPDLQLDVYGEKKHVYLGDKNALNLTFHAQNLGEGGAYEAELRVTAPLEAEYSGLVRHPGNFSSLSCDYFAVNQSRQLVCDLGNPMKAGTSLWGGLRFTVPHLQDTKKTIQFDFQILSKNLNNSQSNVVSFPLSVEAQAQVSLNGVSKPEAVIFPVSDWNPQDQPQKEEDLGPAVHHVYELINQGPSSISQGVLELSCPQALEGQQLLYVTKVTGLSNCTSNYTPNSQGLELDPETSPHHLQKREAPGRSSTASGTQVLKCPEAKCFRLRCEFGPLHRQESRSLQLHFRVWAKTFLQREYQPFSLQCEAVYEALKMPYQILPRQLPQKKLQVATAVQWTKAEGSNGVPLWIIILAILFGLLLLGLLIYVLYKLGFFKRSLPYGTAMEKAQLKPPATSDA
T2 sequence (P09055 21-798, chain 2 of 2): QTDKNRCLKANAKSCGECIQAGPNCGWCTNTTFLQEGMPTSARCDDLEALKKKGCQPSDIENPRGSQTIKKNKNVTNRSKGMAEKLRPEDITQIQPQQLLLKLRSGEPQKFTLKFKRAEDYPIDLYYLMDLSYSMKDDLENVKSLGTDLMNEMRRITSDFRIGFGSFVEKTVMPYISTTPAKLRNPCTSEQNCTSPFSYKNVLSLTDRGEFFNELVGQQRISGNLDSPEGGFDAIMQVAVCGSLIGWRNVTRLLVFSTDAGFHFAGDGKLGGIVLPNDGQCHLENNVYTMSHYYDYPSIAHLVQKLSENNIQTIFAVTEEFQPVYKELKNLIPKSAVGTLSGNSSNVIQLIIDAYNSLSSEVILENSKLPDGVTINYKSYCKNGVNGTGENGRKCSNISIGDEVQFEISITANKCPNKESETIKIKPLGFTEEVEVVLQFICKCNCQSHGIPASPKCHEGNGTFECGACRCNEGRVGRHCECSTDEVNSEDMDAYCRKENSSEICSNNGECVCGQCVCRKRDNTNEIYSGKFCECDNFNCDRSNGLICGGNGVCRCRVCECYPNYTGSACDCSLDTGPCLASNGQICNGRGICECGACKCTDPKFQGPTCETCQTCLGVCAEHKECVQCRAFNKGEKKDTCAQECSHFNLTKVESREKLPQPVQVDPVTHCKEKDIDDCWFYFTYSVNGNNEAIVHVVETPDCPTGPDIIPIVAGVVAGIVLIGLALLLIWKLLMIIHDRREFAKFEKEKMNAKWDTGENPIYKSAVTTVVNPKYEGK
Sequence of α5β1 integrin (P08648 42-894 limits assumed): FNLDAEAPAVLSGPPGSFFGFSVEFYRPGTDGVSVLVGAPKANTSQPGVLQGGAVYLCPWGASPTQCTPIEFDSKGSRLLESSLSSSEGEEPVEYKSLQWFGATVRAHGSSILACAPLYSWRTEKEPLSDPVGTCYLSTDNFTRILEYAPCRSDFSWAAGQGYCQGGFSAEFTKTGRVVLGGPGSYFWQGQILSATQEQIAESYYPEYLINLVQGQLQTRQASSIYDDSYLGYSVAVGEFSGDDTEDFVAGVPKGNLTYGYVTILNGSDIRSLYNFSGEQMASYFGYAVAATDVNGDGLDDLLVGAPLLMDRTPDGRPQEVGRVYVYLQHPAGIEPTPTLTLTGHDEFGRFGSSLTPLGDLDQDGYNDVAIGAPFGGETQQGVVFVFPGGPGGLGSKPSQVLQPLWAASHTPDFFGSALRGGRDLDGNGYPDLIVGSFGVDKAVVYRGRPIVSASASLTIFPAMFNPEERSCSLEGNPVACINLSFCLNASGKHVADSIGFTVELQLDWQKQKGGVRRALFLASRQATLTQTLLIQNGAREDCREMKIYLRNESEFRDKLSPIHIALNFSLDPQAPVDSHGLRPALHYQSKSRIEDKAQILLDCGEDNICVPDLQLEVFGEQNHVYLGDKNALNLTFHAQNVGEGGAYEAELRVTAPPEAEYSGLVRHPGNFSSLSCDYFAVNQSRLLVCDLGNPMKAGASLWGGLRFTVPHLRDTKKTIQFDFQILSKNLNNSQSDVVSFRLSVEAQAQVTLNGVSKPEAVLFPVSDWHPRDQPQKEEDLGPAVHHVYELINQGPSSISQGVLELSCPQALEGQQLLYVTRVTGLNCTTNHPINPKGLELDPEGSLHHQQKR
Sequence of α5β1 integrin (P08648 895-1049 partner limits assumed): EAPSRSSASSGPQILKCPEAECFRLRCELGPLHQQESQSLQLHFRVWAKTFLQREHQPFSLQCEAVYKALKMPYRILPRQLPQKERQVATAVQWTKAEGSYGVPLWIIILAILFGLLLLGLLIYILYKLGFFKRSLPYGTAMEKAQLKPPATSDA
Sequence of α5β1 integrin (P05556 21-798): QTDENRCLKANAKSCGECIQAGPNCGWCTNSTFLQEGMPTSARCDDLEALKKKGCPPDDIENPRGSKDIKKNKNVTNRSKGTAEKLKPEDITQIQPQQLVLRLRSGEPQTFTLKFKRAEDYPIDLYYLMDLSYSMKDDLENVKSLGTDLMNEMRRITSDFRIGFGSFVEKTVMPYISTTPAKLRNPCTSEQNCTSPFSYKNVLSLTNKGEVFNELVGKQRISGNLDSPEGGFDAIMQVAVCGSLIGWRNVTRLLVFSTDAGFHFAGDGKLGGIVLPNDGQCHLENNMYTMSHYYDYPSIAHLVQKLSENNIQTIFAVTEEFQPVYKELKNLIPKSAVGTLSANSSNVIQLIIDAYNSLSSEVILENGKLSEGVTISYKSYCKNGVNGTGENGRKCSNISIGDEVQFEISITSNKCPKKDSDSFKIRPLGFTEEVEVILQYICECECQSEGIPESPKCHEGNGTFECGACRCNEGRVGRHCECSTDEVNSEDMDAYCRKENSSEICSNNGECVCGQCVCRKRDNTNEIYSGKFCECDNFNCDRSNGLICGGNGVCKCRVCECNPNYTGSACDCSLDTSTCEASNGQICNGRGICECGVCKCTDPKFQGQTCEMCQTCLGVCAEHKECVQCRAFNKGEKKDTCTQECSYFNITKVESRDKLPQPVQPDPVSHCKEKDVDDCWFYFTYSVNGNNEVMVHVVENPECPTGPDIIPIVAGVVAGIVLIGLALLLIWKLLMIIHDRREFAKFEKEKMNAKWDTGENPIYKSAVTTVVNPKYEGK

Molecule: (C16)2-Glu-C2-GRGDSP
- Fibronectin production by adhered HUVECs [1]: significantly less compared to FN and PR_b
- Fibronectin secretion by adhered HUVECs [1]: minimal fibronectin secretion
- reduction in cell adhesion compared to adhesion of non-blocked cells [2]: 75.99±1.51%
- HUVEC spreading (cell area) [3]: higher compared to GRGESP, but much smaller than FN
- Focal adhesion contacts (vinculin) [4]: did not form strong focal adhesion contacts
- Actin fibers and focal adhesion points [4]: some actin fiber formation
- Actin organization ([4]; 24 hours): actin organization became less pronounced
- Ability of substrate to sustain HUVEC adhesion over time [5]: failed to sustain HUVEC adhesion after 48 hours; also recorded: failed to sustain cell adhesion after 48 hours

Molecule: (C16)2-Glu-C2-GRGESP ({(C16)2‑Glu‑C2}-GRGESP) [negative control peptide-amphiphile]
- Fibronectin production by adhered HUVECs [1]: significantly less compared to FN and PR_b
- Fibronectin secretion by adhered HUVECs [1]: minimal fibronectin secretion
- HUVEC spreading (cell area) [3]: smallest
- Actin fibers and focal adhesion points [4]: no distinct actin fibers and very few focal adhesion points
- Ability of substrate to sustain HUVEC adhesion over time [5]: failed to sustain cell adhesion after 48 hours

Molecule: (C16)2-Glu-C2-KSSPHSRNGGGGGGGGGGRGDSP ({(C16)2‑Glu‑C2}-KSSPHSRNGGGGGGGGGGRGDSP) [Pr_c]
- HUVEC adhesion level (description) ([6]; 1, 4 and 12 hours): high adhesion at 1 hour
- Maintenance / decay of HUVEC adhesion over time [6]: not maintained at longer time periods
- Specificity for the α5β1 integrin [7]: not specific to the α5β1 integrin

Molecule: (C16)2-Glu-C2-KSSPHSRNSSSSSSSSSSRGDSP ({(C16)2‑Glu‑C2}-KSSPHSRNSSSSSSSSSSRGDSP) [Pr_d]
- HUVEC adhesion level (description) ([6]; 1, 4 and 12 hours): good adhesion out to 4 hours
- Maintenance / decay of HUVEC adhesion over time [6]: extreme drop-off at 12 hours

Molecule: (C16)2-Glu-C2-PHSRNSGSGSGSGRGDSP ({(C16)2‑Glu‑C2}-PHSRNSGSGSGSGRGDSP) [PR_a]
- HUVEC spreading (cell area) [3]: mostly spread
- HUVEC spreading, rank among surfaces [3]: third
- HUVEC adhesion compared with FN ([6]; 1 hour): no statistical difference
- HUVEC adhesion compared with FN ([6]; 4 hours): no difference in adhesion
- HUVEC adhesion compared with FN ([6]; 12 hours): statistically higher than FN
- Ability of substrate to sustain HUVEC adhesion over time [5]: effectively adhered

Molecule: (C16)2-Glu-C2-PHSRNSGSGSGSGSGRGDSP ({(C16)2‑Glu‑C2}-PHSRNSGSGSGSGSGRGDSP) [Pr_e]
- HUVEC adhesion compared with FN, overall ([6]; 1, 4 and 12 hours): superior cell adhesion performance; also recorded: outperformed
- HUVEC adhesion compared with Pr_a, overall ([6]; 1, 4 and 12 hours): superior cell adhesion performance; also recorded: outperformed
- HUVEC adhesion compared with FN ([6]; 1 hour): higher HUVEC adhesion
- HUVEC adhesion compared with Pr_a ([6]; 1 hour): higher HUVEC adhesion
- HUVEC adhesion compared with FN ([6]; 4 hours): higher adhesion than FN
- HUVEC adhesion compared with Pr_a ([6]; 4 hours): no statistical difference
- HUVEC adhesion compared with FN ([6]; 12 hours): statistically higher than FN
- HUVEC adhesion compared with Pr_a ([6]; 12 hours): not statistically different

Molecule: FN: Human fibronectin-coated round coverslips (BD Biosciences), positive control
- Fibronectin secretion by adhered HUVECs [1]: fully covered with secreted fibronectin
- HUVEC spreading (cell area) [3]: mostly spread
- HUVEC spreading, rank among surfaces [3]: second
- Actin stress fibers and focal contacts ([4]; 1-72 hours): displayed actin stress fibers and focal contacts
- Fibronectin (ECM) production by adhered HUVECs [8]: allow both cell adhesion and ECM production; also recorded: allowed attached cells to produce fibronectin

Molecule: {(C16)2‑Glu‑C2″}-KSSPHSRNSGSGSGSGSGRGDSP [PR_b peptide-amphiphile (C16)2-Glu-C2-KSSPHSRNSGSGSGSGSGRGDSP]
- reduction of binding against stealth liposomes with about 2.5 mol % PR_b [9]: 10 fold
- increase of binding against 2.5 mol % GRGDSP low PEG2000 liposomes [10]: ~100 fold

B1: GRGDSP peptide-amphiphile (C16)2-Glu-C2-KAbuGRGDSPAbuK (peptide)
peptide: {(C16)2‑Glu‑C2}-K[Abu]GRGDSP[Abu]K
notes: also called GRGDSP-targeted liposomes; GRGDSP-functionalized liposomes
- binding result [10]: binds
